Experimental data taken from patent US8815882B2, “Pyrazole aminopyrimidine derivatives as LRRK2 modulators” (Genentech, Inc., priority 2010, dated 2014).

Biological target: T1, LRRK2 (Homo sapiens, UniProt Q5S007, G2019S)
T1 construct: purchased Invitrogen PV4882 (lot 567054A)
Experiment: In Vitro LRRK2 Assay (LabChip 3000, fluorescently-labeled peptide substrate, ATP)
Assay type: biochemical
Conditions: Table 10; LRRK2 Ki (micromolar); read-out: LRRK2 Ki (KI)
Method in brief: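 LRRK2, fluorescent peptide substrate (diluted to 4 μM before mixing), ATP and compound were incubated 2 h in the dark, then stopped. Phosphorylated and unphosphorylated peptide were separated by capillary electrophoresis and quantified by fluorescence. Ki was fitted with a tight-binding equation including enzyme concentration, S and Km; IC50 or percent inhibition were also reported.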

T1 sequence (Q5S007 whole entry G2019S): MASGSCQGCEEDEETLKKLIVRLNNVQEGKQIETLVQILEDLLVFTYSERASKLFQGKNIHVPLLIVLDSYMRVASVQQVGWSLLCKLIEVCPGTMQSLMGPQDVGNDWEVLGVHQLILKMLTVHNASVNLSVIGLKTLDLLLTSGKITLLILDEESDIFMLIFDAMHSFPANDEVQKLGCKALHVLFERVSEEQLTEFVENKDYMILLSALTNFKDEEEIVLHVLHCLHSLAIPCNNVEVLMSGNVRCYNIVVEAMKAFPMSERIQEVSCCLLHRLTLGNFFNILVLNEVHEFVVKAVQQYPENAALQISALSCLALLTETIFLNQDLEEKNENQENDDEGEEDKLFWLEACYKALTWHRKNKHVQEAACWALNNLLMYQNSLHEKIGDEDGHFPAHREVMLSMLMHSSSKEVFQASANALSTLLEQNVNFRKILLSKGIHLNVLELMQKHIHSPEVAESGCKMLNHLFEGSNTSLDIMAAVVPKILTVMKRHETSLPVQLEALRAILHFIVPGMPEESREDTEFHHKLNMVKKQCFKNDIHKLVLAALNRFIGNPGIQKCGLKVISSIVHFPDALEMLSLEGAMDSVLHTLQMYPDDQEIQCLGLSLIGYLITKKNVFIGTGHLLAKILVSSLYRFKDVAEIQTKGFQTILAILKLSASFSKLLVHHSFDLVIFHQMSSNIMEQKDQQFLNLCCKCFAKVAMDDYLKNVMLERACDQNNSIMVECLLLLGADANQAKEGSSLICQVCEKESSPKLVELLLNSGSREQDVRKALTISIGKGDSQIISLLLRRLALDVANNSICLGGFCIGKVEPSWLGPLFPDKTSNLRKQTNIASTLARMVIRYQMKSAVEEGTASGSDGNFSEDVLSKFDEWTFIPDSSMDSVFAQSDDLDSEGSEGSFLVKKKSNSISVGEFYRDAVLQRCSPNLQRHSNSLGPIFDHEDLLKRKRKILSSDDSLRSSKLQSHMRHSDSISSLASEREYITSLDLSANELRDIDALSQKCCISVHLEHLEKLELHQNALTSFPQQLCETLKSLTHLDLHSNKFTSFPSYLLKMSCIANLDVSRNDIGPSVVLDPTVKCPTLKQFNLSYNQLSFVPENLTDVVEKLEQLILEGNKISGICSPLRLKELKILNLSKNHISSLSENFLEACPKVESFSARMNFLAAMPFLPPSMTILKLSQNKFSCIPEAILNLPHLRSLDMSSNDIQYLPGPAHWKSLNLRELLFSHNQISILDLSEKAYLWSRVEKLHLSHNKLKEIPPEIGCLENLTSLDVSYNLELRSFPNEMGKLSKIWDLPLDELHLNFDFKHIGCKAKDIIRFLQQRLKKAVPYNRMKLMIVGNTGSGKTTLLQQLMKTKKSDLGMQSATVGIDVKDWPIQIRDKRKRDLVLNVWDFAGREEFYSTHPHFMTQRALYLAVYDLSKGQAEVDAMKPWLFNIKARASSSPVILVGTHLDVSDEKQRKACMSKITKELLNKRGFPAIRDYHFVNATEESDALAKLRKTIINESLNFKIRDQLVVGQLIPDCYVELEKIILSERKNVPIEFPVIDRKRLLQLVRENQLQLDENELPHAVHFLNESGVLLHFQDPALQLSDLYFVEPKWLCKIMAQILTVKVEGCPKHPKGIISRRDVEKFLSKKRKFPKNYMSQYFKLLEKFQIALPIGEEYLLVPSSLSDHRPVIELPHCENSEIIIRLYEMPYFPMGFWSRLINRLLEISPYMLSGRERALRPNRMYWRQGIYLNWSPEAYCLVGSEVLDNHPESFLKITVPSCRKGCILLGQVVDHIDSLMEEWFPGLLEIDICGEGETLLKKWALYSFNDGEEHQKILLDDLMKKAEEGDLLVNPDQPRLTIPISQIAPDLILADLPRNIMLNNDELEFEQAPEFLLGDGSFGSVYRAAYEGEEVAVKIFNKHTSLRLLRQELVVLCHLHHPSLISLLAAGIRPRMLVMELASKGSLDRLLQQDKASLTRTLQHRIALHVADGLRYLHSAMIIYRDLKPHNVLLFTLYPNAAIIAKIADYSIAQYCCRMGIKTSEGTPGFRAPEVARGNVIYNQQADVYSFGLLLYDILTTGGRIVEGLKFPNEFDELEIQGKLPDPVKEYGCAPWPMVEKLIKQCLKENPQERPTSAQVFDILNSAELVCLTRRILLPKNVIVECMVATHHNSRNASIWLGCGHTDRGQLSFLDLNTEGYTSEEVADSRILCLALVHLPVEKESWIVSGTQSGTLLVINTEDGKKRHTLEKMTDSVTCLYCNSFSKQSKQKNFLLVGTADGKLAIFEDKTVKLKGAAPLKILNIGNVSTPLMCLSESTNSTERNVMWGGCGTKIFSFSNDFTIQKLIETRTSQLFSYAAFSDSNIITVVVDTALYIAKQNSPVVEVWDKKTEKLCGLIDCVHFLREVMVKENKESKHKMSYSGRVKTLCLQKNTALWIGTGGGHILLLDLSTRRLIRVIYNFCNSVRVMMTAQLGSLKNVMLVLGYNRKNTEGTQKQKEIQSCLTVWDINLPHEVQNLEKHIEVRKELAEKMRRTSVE

| Ki | SMILES |
| --- | --- |
| 5.8 nM | COc1nc(Nc2cn(C(C)(C)C#N)nc2C2CC2)ncc1Cl [Example 438, 2-[4-(5-Chloro-4-methoxy-pyrimidin-2-ylamino)-3-cyclopropyl-pyrazol-1-yl]-2-methyl-propionitrile] |

Same assay, conditions: read-out: LRRK2 Ki (KI), Table 7

| Ki | SMILES |
| --- | --- |
| 15 nM | COCCn1cc(Nc2ncc(Cl)c(OC)n2)c(C)n1 [Example 19, 5-Chloro-4-methoxy-N-(1-(2-methoxyethyl)-3-methyl-1H-pyrazol-4-yl)pyrimidin-2-amine] |
| 58.6 nM | Cc1c(Nc2ncc(Cl)c(OCC(F)(F)F)n2)cnn1C [Example 64, 5-chloro-N-(1,5-dimethyl-1H-pyrazol-4-yl)-4-(2,2,2-trifluoroethoxy) pyrimidin-2-amine] |
| 39 nM | Cc1c(Nc2ncc(Cl)c(OC3COC3)n2)cnn1C [Example 62, 5-chloro-N-(1,5-dimethyl-1H-pyrazol-4-yl)-4-(oxetan-3-yloxy)pyrimidin-2-amine] |
| 12 nM | CNc1nc(Nc2cn(C(C)C)nc2C)ncc1Cl [Example 31, 5-Chloro-N^2-(1-isopropyl-3-methyl-1H-pyrazol-4-yl)-N^4-methylpyrimidine-2,4-diamine] |

Same assay, conditions: read-out: LRRK2 Ki (KI), Table 8

| SMILES | Ki |
| --- | --- |
| Cc1c(Nc2ncc(Cl)c(NCC(F)F)n2)cnn1C [Example 172, 5-chloro-N4-(2,2-difluoroethyl)-N2-(1,5-dimethyl-1H-pyrazol-4-yl)pyrimidine-2,4-diamine] | 7 nM |
| CNc1nc(Nc2ccnn2C)ncc1Br [Example 99, 5-bromo-N4-methyl-N2-(1-methyl-1H-pyrazol-5-yl)pyrimidine-2,4-diamine] | 5.4 nM |

Continued, values first:

| Ki | SMILES |
| --- | --- |
| 0.3 nM | CCNc1nc(Nc2cn(C(C)(C)c3ccnn3C)nc2C)ncc1C(F)(F)F [Example 343, N4-ethyl-N2-(3-methyl-1-(2-(1-methyl-1H-pyrazol-5-yl)propan-2-yl)-1H-pyrazol-4-yl)-5-(trifluoromethyl) pyrimidine-2,4-diamine] |
| 0.3 nM | CCNc1nc(Nc2cnn(-c3ccc(S(C)(=O)=O)cc3)c2C)ncc1C(F)(F)F [Example 163, N4-ethyl-N2-(5-methyl-1-(4-(methylsulfonyl)phenyl)-1H-pyrazol-4-yl)-5-(trifluoromethyl) pyrimidine-2,4-diamine] |
| 1.1 nM | CCNc1nc(Nc2cnn(C3CCC(=O)N(C)C3)c2C)ncc1C(F)(F)F (centres unmarked) [Example 151, 5-(4-(4-(ethylamino)-5-(trifluoromethyl)pyrimidin-2-ylamino)-5-methyl-1H-pyrazol-1-yl)-1-methylpiperidin-2-one] |
| 4.9 nM | CCNc1nc(Nc2cn(C3CCN(CC4OCCO4)C3)nc2C)ncc1C(F)(F)F (centres unmarked) [Example 322, N2-[1-(1-[1,3]Dioxolan-2-ylmethyl-pyrrolidin-3-yl)-3-methyl-1H-pyrazol-4-yl]-N4-ethyl-5-trifluoromethyl-pyrimidine-2,4-diamine] |
